# Reference: patent publication US20260062422A1 (Halda Therapeutics OpCo, Inc., priority 2022, published 2026)
# Target: T1, androgen receptor (Homo sapiens, UniProt P10275)
# T1 sequence (P10275 1-920 T878A): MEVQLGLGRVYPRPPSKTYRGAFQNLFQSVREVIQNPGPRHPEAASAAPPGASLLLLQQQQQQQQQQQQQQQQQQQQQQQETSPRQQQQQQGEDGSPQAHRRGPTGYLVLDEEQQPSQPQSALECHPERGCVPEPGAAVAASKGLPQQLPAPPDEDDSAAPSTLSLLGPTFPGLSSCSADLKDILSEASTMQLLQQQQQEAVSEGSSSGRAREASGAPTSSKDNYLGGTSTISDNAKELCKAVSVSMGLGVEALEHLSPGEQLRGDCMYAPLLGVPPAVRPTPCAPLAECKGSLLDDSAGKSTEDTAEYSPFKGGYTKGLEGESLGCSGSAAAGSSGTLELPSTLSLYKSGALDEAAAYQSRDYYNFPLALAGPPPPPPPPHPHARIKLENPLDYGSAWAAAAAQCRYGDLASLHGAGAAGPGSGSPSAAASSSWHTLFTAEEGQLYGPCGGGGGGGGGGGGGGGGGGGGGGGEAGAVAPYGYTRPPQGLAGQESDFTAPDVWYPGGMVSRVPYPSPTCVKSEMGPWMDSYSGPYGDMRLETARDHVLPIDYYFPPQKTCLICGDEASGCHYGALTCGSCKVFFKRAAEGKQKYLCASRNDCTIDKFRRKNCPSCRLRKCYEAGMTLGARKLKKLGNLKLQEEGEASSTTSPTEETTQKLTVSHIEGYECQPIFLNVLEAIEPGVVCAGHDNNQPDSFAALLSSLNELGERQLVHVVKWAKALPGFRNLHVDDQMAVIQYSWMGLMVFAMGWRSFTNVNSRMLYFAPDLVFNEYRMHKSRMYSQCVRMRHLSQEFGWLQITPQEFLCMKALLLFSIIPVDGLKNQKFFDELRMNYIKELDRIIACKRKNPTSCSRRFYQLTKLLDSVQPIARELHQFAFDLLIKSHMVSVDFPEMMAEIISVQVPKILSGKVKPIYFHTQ
# Assay: Assay for binding affinity to androgen receptor ([3H]methyltrienolone radioligand, cell cytosol)
# Settings: 1 nM [3H]methyltrienolone, 24 hours at 4° C., Table 5
# Method: Fractions of cell cytosol ([…] cell/point) were incubated for 24 hours at 4° C. with 1 nM [^3H]methyltrienolone in the absence or presence of the test compound in a buffer containing 25 mM Hepes-Tris (pH 7.4), 1 mM EDTA, 10 mM Na2MoO4, 2 mM DTT, 5 μM triamcinolone acetonide, and 10% glycerol. Nonspecific binding was determined in the presence of 1 μM testosterone. Following incubation, the samples were filtered rapidly under vacuum through glass fiber filters (GF/B, Packard) presoaked with 0.3% PEI and rinsed several times with ice-cold 50 mM Tris-HCl using a 96-sample cell harvester (Unifilter, Packard). The filters were dried then counted for radioactivity in a scintillation counter (Topcount, Packard) using a scintillation cocktail (Microscint 0, Packard). The results are expressed as a percent inhibition of the control radioligand specific binding. The standard reference compound is testosterone, which is tested in each experiment at several concentrations to obtain a competition curve from which its IC50 is calculated.
row,Kd [nM],Compound
1,< 50,"Cc1sc2c(c1C)C(c1ccc(Cl)cc1)=N[C@@H](CC(=O)NCCN(C)c1ncc(C(=O)N[C@H]3C(C)(C)[C@H](Oc4ccc(C#N)c(Cl)c4)C3(C)C)cn1)c1nnc(C)n1-2 [Compound I-1, N-[3-(3-chloro-4-cyano-phenoxy)-2,2,4,4-tetramethyl-cyclobutyl]-2-[2-[[2-[(9S)-7-(4-chlorophenyl)-4,5,13-trimethyl-3-thia-1,8,11,12-tetrazatricyclo[8.3.0.02,6]trideca-2(6),4,7,10,12-pentaen-9-yl]acetyl]amino]ethyl-methyl-amino]pyrimidine-5-carboxamide]"
2,< 50,Cc1sc2c(c1C)C(c1ccc(Cl)cc1)=N[C@@H](CC(=O)NCCOCCOCCOCCOCCOCCOCCN(C)c1ncc(C(=O)N[C@H]3C(C)(C)[C@H](Oc4ccc(C#N)c(Cl)c4)C3(C)C)cn1)c1nnc(C)n1-2 [Compound I-4]
3,< 50,Cc1sc2c(c1C)C(c1ccc(Cl)cc1)=N[C@@H](CC(=O)NCCOCCOCCOCC1CCN(c3ncc(C(=O)N[C@H]4C(C)(C)[C@H](Oc5ccc(C#N)c(Cl)c5)C4(C)C)cn3)CC1)c1nnc(C)n1-2 [Compound I-17]

# Test system: VCaP cells
# Assay: Cellular growth inhibition assay for VCaP cells, CellTiter-Glo
# Format: cell-based, human
# Settings: Homo sapiens, VCaP, 72 h, 72 hours treatment, CellTiter-Glo 2.0
# Summary of the method: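 GI50 values come from four-parameter curve fits of luminescence data normalized to a zero baseline. Compound, in medium with 0.5% DMSO, was added one day after plating and left for 72 h before CellTiter-Glo 2.0 addition.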
row,GI50 [nM],Compound
1,< 500,Cc1sc2c(c1C)C(c1ccc(Cl)cc1)=N[C@@H](CC(=O)NCCOCCOCCOCCOCCOCCOCCN(C)c1ncc(C(=O)N[C@H]3C(C)(C)[C@H](Oc4ccc(C#N)c(Cl)c4)C3(C)C)cn1)c1nnc(C)n1-2 [Compound I-4]
2,< 500,CCNC(=O)C[C@@H]1N=C(c2ccc(N3CCC(N(C)C4CCN(c5ncc(C(=O)N[C@H]6C(C)(C)[C@H](Oc7ccc(C#N)c(Cl)c7)C6(C)C)cn5)CC4)CC3)cc2)c2c(sc(C)c2C)-n2c(C)nnc21 [Compound I-113]
3,500 to 1500,CCNC(=O)C[C@@H]1N=C(c2ccc(N(C)C3CN(CC4CCN(c5ncc(C(=O)N[C@H]6C(C)(C)[C@H](Oc7ccc(C#N)c(Cl)c7)C6(C)C)cn5)CC4)C3)cc2)c2c(sc(C)c2C)-n2c(C)nnc21 [Compound I-119]
4,< 500,CCNC(=O)C[C@@H]1N=C(c2ccc(N(C3CC3)C3CN(CC4CCN(c5ncc(C(=O)N[C@H]6C(C)(C)[C@H](Oc7ccc(C#N)c(Cl)c7)C6(C)C)cn5)CC4)C3)cc2)c2c(sc(C)c2C)-n2c(C)nnc21 [Compound I-129]
5,500 to 1500,CCNC(=O)C[C@@H]1N=C(c2ccc(N(C)C3CC(OC4CCN(c5ncc(C(=O)N[C@H]6C(C)(C)[C@H](Oc7ccc(C#N)c(Cl)c7)C6(C)C)cn5)CC4)C3)cc2)c2c(sc(C)c2C)-n2c(C)nnc21 (stereo partly drawn) [Compound I-130]
6,< 500,"Cc1sc2c(c1C)C(c1ccc(CCCOC3CCN(c4ncc(C(=O)N[C@H]5C(C)(C)[C@H](Oc6ccc(C#N)c(Cl)c6)C5(C)C)cn4)CC3)cc1)=N[C@@H](Cc1ncco1)c1nnc(C)n1-2 [Compound I-131, N-[3-(3-chloro-4-cyano-phenoxy)-2,2,4,4-tetramethyl-cyclobutyl]-2-[4-[3-[4-[(9S)-4,5,13-trimethyl-9-(oxazol-2-ylmethyl)-3-thia-1,8,11,12-tetrazatricyclo[8.3.0.02,6]trideca-2(6),4,7,10,12-pentaen-7-yl]phenyl]propoxy]-1-piperidyl]pyrimidine-5-carboxamide]"
7,< 500,Cc1sc2c(c1C)C(c1ccc(CC3CC(C4CCN(c5ncc(C(=O)N[C@H]6C(C)(C)[C@H](Oc7ccc(C#N)c(Cl)c7)C6(C)C)cn5)CC4)C3)cc1)=NC(Cc1ncco1)c1nnc(C)n1-2 (stereo partly drawn) [Compound I-136]
8,< 500,Cc1sc2c(c1C)C(c1ccc(CC3CN(CC4CCN(c5ncc(C(=O)N[C@H]6C(C)(C)[C@H](Oc7ccc(C#N)c(Cl)c7)C6(C)C)cn5)CC4)C3)cc1)=N[C@@H](Cc1ncco1)c1nnc(C)n1-2 [Compound I-153]
9,< 500,Cc1sc2c(c1C)C(c1ccc(C[C@H]3C[C@@H]([C@@H]4CCCN(c5ncc(C(=O)N[C@H]6C(C)(C)[C@H](Oc7ccc(C#N)c(Cl)c7)C6(C)C)cn5)C4)C3)cc1)=N[C@@H](Cc1ncco1)c1nnc(C)n1-2 [Compound I-161]
10,< 500,Cc1sc2c(c1C)C(c1ccc(OC3CC4(CCN(c5ncc(C(=O)N[C@H]6C(C)(C)[C@H](Oc7ccc(C#N)c(Cl)c7)C6(C)C)cn5)CC4)C3)cc1)=NC(Cc1ncco1)c1nnc(C)n1-2 (stereo partly drawn) [Compound I-166]
11,< 500,Cc1sc2c(c1C)C(c1ccc(OC3CN(CC4CCN(c5ncc(C(=O)N[C@H]6C(C)(C)[C@H](Oc7ccc(C#N)c(Cl)c7)C6(C)C)cn5)CC4)C3)cc1)=N[C@H](Cc1ncco1)c1nnc(C)n1-2 [Compound I-169]
12,500 to 1500,Cc1sc2c(c1C)C(c1ccc(O[C@H]3CC[C@@]4(CCCN(c5ncc(C(=O)N[C@H]6C(C)(C)[C@H](Oc7ccc(C#N)c(Cl)c7)C6(C)C)cn5)C4)CC3)cc1)=N[C@@H](Cc1ncco1)c1nnc(C)n1-2 [Compound I-172]
13,< 500,Cc1sc2c(c1C)C(c1ccc(N3CC(C4CCN(c5ncc(C(=O)N[C@H]6C(C)(C)[C@H](Oc7ccc(C#N)c(Cl)c7)C6(C)C)cn5)CC4)C3)cc1)=NC(Cc1ncco1)c1nnc(C)n1-2 (stereo partly drawn) [Compound I-209]
14,> 3000,"COCC[C@@H]1N=C(c2ccc(CCCOC3CCN(c4ncc(C(=O)N[C@H]5C(C)(C)[C@H](Oc6ccc(C#N)c(Cl)c6)C5(C)C)cn4)CC3)cc2)c2c(sc(C)c2C)-n2c(C)nnc21 [Compound I-227, N-[3-(3-chloro-4-cyano-phenoxy)-2,2,4,4-tetramethyl-cyclobutyl]-2-[4-[3-[4-[(9S)-9-(2-methoxyethyl)-4,5,13-trimethyl-3-thia-1,8,11,12-tetrazatricyclo[8.3.0.02,6]trideca-2(6),4,7,10,12-pentaen-7-yl]phenyl]propoxy]-1-piperidyl]pyrimidine-5-carboxamide]"
15,< 500,"Cc1sc2c(c1C)C(c1ccc(CCCOC3CCN(c4ncc(C(=O)N[C@H]5C(C)(C)[C@H](Oc6ccc(C#N)c(Cl)c6)C5(C)C)cn4)CC3)cc1)=N[C@@H](C)c1nnc(C)n1-2 [Compound I-228, N-[3-(3-chloro-4-cyano-phenoxy)-2,2,4,4-tetramethyl-cyclobutyl]-2-[4-[3-[4-[(9S)-4,5,9,13-tetramethyl-3-thia-1,8,11,12-tetrazatricyclo [8.3.0.02,6]trideca-2(6),4,7,10,12-pentaen-7-yl]phenyl]propoxy]-1-piperidyl]pyrimidine-5-carboxamide]"
16,< 500,"Cc1sc2c(c1C)C(c1ccc(OCCOC3CCN(c4ncc(C(=O)N[C@H]5C(C)(C)[C@H](Oc6ccc(C#N)c(Cl)c6)C5(C)C)cn4)CC3)cc1)=N[C@@H](CC(=O)OC(C)(C)C)c1nnc(C)n1-2 [Compound I-235, tert-butyl 2-((S)-4-(4-(2-((1-(5-(((1r,3r)-3-(3-chloro-4-cyanophenoxy)-2,2,4,4-tetramethylcyclobutyl)carbamoyl)pyrimidin-2-yl)piperidin-4-yl)oxy)ethoxy)phenyl)-2,3,9-trimethyl-6H-thieno[3,2-f][1,2,4]triazolo[4,3-a][1,4]diazepin-6-yl)acetate]"
17,< 500,Cc1sc2c(c1C)C(c1ccc(C3CC3C3CC4(CCN(c5ncc(C(=O)N[C@H]6C(C)(C)[C@H](Oc7ccc(C#N)c(Cl)c7)C6(C)C)cn5)CC4)C3)cc1)=N[C@@H](Cc1ncco1)c1nnc(C)n1-2 (stereo partly drawn) [Compound I-237]
18,> 3000,Cc1sc2c(c1C)C(c1ccc(CCC3CC4(CCCN(c5ncc(C(=O)N[C@H]6C(C)(C)[C@H](Oc7ccc(C#N)c(Cl)c7)C6(C)C)cn5)C4)C3)cc1)=N[C@@H](Cc1ncco1)c1nnc(C)n1-2 [Compound I-241]
19,< 500,Cc1sc2c(c1C)C(c1ccc(C#CC3CC4(CCN(c5ncc(C(=O)N[C@H]6C(C)(C)[C@H](Oc7ccc(C#N)c(Cl)c7)C6(C)C)cn5)CC4)C3)cc1)=N[C@@H](Cc1ncco1)c1nnc(C)n1-2 [Compound I-267]
20,1500 to 3000,Cc1sc2c(c1C)C(c1ccc(N3CC(CC4CCN(c5ncc(C(=O)N[C@H]6C(C)(C)[C@H](Oc7ccc(C#N)c(Cl)c7)C6(C)C)cn5)CC4)C3)cc1)=N[C@@H](C)c1nnc(C)n1-2 [Compound I-270]
21,> 3000,Cc1sc2c(c1C)C(c1ccc(CC3CC4(CCN(c5ncc(C(=O)N[C@H]6C(C)(C)[C@H](Oc7ccc(C#N)c(Cl)c7)C6(C)C)cn5)CC4)C3)cc1)=N[C@@H](C)c1nnc(C)n1-2 [Compound I-436]
